How the values were obtained:
Type in all cases: in vivo, rat
[1] = system: unilaterally 6-OHDA lesioned rats; experiment: Contralateral rotations in unilaterally 6-OHDA lesioned rats; details: for contralateral turns: dopamine-receptor agonist potency / duration of action as compared to that of apomorphine / bioavailability indicated by contralateral turns after IP and PO administration: 0.1 mg/kg, FIG. 4; for contralateral turns: dopamine-receptor agonist potency: IP (n=4) and PO (n=6); for duration of action as compared to that of apomorphine: IP and PO; for bioavailability indicated by contralateral turns after IP and PO administration: IP vs PO
Description: Male Sprague-Dawley rats (150 g; Scanbur, Sweden) were used for this study and housed in separate air-conditioned rooms (12-h dark/light cycle) at 20° C. and a humidity of 53%. Experiments were performed in agreement with the European Communities Council Directive of 24 Nov. 1986 (86/609/EEC) on the ethical use of animals and were approved by the local ethical committee at Karolinska Institute. In most of the experiments, unilaterally 6-OHDA lesioned rats were used to mimic aspects of Parkinsonism. Unilateral 6-OHDA lesioning of nigral dopaminergic axons was performed as previously described (Zhang et al., Neuropharmacology 54 (2008) 1143-1152). Briefly, rats were anesthetized with ketamine (100 mg/kg, i.p.; Parke-Davis, Boxmeer, Netherlands)/xylazine (5 mg/kg, i.p.; Bayer, Kiel, Germany), pretreated with desipramine (25 mg/kg, i.p.; Sigma, Stockholm, Sweden) and pargyline (5 mg/kg, i.p.; Sigma), placed in a stereotaxic instrument and injected with 6-OHDA (2.5 p.I of a 5 mg/ml solution; Sigma) into the medial forebrain bundle of the right hemisphere (AP—2.8 mm, ML—2.0 mm and V—9.0 mm). Two weeks after unilateral 6-OHDA lesioning, rats were administered with apomorphine (1 mg/kg, i.p; Sigma), and their contralateral rotations were measured. […] Only rats which rotated contralaterally more than 100 times were included in further experiments.
The time scale is minutes or hours after administration. […] Negative control animals were injected with saline.

[2] = system: non-pre-treated Sprague-Dawley rats; experiment: Spontaneous locomotor activity (distance travelled); details: 0.3 μmol/kg SC; for effect on motor activity (distance travelled): n=5, 0-180 min, vs saline, FIG. 6 and 7
Description: Behavioral activity was measured using eight Digiscan activity monitors (RXYZM (16) TAO, Omnitech Electronics, Columbus, OH, USA), connected to an Omnitech Digiscan analyzer and an Apple Macintosh computer equipped with a digital interface board (NB DIO-24, National Instruments, USA). Each activity monitor consisted of a quadratic metal frame (W×L=40 cm×40 cm) equipped with photo beam sensors. During measurements of behavioral activity, a rat was put in a transparent acrylic cage (W×L×H, 40×40×30 cm) which in turn was placed in the activity monitor. Each activity monitor was equipped with three rows of infrared photo beam sensors, each row consisting of 16 sensors. Two rows were placed along the front and the side of the floor of the cage, at a 90° angle, and the third row was placed 10 cm above the floor to measure vertical activity. Photo beam sensors were spaced 2.5 cm apart. Each activity monitor was fitted in an identical sound and light attenuating box containing a weak house light and a fan.
The computer software was written using object-oriented programming (LabVIEW™ National instruments, Austin, TX, USA).
Behavioral data from each activity monitor, representing the position (horizontal center of gravity and vertical activity) of the animal at each time, were recorded at a sampling frequency of 25 Hz and collected using a custom written LABView™ application. The data from each recording session were stored and analyzed with respect to distance traveled. Each behavioral recording session lasted 180 min, starting approximately 5 min after the injection of test compound.
Compounds disclosed herein have been tested for effects on spontaneous locomotor activity in non-pre-treated Sprague-Dawley rats (based on accumulated distance travelled 0-180 min post dosing), and with the single dose of 0.3 μmol/kg (n=5, SC) compared to a control group of animals (n=5) that obtained saline (SC). The unit of the distance travelled is an arbitrary unit.
The animals were placed in the motility meters immediately after administration and locomotor activity was recorded for 180 minutes.
Results are presented as distance travelled for the control group (empty bar) and for the group of animals that obtained the drug (filled bar).
The animals were placed in the motility meters immediately after administration and locomotor activity was recorded for 180 minutes. Results are presented as distance travelled for the control group (empty bars) and for the group of animals that obtained the drug (filled bar).

[3] = system: Arc mRNA; experiment: m-RNA analysis of Arc in brain regions (real-time PCR); details: 0.3 and 1 μmol/kg SC, 60 min after injection, percent of control, FIG. 5
Description: (§1) Animals were killed 60 min after the injection of the drugs by decapitation.
(§2) The brains were dissected into a left and a right part. The left part was analyzed for gene expression and dissected into 4 different areas:
(§3) Limbic system (containing nucleus accumbens, most parts of the olfactory tubercle, ventral pallidum and amygdala), striatum, frontal cortex, and hippocampus.
(§4) Total RNA was prepared by RNeasy Plus Universal Tissue Mini Kit (Qiagen).
(§5) RNA pellets were dissolved in RNAse-free water and stored at −80° C. The sample concentration was determined spectrophotometrically by a NanoDrop ND-1000.
A two-step reversed transcription was performed by using a SuperScript III kit (Invitrogen). 1 μg of total RNA was reversed transcribed with 5 μl 2×RT Reaction Mix, 1 μl RT Enzyme and the mix volume was adjusted to 10 μl with RNAse-free water. The sample was incubated at 25° C. for 10 min, 50° C. for 30 min and finally 85° C. for 5 min. 1 U of E. coli RNase H was added following incubation at 37° C. for 20 min and 85° C. for 5 minutes. The cDNA solution was diluted 40 times in Tris EDTA buffer solution pH8 (Merck) and stored at −20° C.
Three sequences (arc and two reference genes) were amplified together in a triplex PCR-reaction. For real-time PCR measurements: 5 μl of the cDNA reaction was amplified in a 20 μl reaction mixture containing 10 μl PerfeCTa MultiPlex qPCR SuperMix (Quantabio), 3.5 μl RNAse-free water, 0.15 µM of each primer and 0.1 μM of each probe. Real-time PCR was measured on CFX96 (Bio-Rad) using the following settings for all genes: 3 min pre-incubation at 95° C. followed by 40 cycles of denaturation at 95° C. for 15 s, annealing and elongation at 60° C. for 1 min. Reference genes are HPRT and cyclophilin.
FIG. 5 illustrates the effects on tissue levels of Arc mRNA in four different regions of the brain (limbic regions, striatum, frontal cortex and hippocampus) after subcutaneous administration of two different compounds at two different doses as in comparison to that of corresponding control experiments. The bars in the left half of the figure represent the effects on ARC by the prior art compound according to Preparation 4A ((4aR,10aR)-1-propyl-1,2,3,4,4a,5,8,9,10,10a-decahydrobenzo[g]quinolin-6 (7H)-one) and the bars in the right half of the figure represent the effects on ARC by the compound of the present disclosure according to Example 4B ((4aR,10aR)-1-propyl-1,2,3,4,4a,5,6,7,8,9,10,10a-dodecahydrobenzo[g]quinolin-6-ol). The effects on tissue levels of Arc by both of the two aforementioned compounds were measured at two different doses (0.3 μmol/kg and 1 μmol/kg) and the effect is presented as percent of control means±SEM. Statistical significance was assessed using Student's t-test (2 tailed) vs controls.

[4] = system: Npas4; experiment: m-RNA analysis of Npas4 in brain regions (Taqman PCR); details: SC
Description: as §1, §2, §3, §4, §5
(§6) A two-step reversed transcription was performed by using a SuperScript III kit (Invitrogen). 1 μg of total RNA was reversed transcribed with 5 μl 2×RT Reaction Mix, 1 μl RT Enzyme and the mix volume was adjusted to 10 μl with RNAse-free water. The sample was incubated at 25° C. for 10 min, 50° C. for 30 min and finally 85° C. for 5 min. […]
(§7) EGR-1 (Early growth response qRnoCEP0022872) was analyzed in duplex with the reference gene HPRT (hypoxanthine phosphoribosyltransferase qRnoCEP0050840). Npas4 (neuronal PAS domain protein4 qRnoCEP0029461) was analyzed in singleplex. The reference gene Ppia (cyclophilin A peptidyl-propyl cis-trans isomerase qRnoCIP0050815) was also analyzed in order to quantify gene expression for genes of interest.

[5] = system: egr-1; experiment: m-RNA analysis of egr-1 in brain regions (Taqman PCR); details: SC
Description: as §1, §2, §3, §4, §5, §6, §7

SMILES	contralateral turns as a function of time (course of effect) ([1]; 1 mg/kg i.p., FIG. 3)	contralateral turns: dopamine-receptor agonist potency [1]	duration of action as compared to that of apomorphine [1]	bioavailability indicated by contralateral turns after IP and PO administration [1]	on-set of action (distance travelled increases after the initial decrease) [2] [min]	time at which a long distance travelled is already reached (steep immediate effect) [2] [min]	peak plasma concentration of the active species, inferred from locomotor data ([2]; compared to Example 4B)	effect on motor activity (distance travelled) [2]	tissue levels of Arc in the frontal cortex [3]	tissue levels of Arc in the limbic regions [3]	side effect profile, inferred from slower on-set of action [2]	tissue levels of Npas4 in the limbic regions ([4]; 60 min after injection)	increase of Npas4 in the limbic regions compared to Preparation 4A ([4]; vs prior art compound)	tissue levels of egr-1 in the limbic regions ([5]; 60 min after injection)	increase of egr-1 in the limbic regions compared to Preparation 4A ([5]; vs prior art compound)
CN1CCc2cccc3c2[C@H]1Cc1ccc(O)c(O)c1-3 [apomorphine, reference compound]	declines over time														
CCCN1CCC[C@@H]2CC3=C(CCC[C@@H]3O)C[C@H]21 [epimer 2, (4aR,6S,10aR)-1-propyl-1,2,3,4,4a,5,6,7,8,9,10,10a-dodecahydrobenzo[g]quinolin-6-ol]		highly potent dopamine-receptor agonists	very long duration of action	good bioavailability											
CCCN1CCC[C@@H]2CC3=C(CCCC3=O)C[C@H]21 [Preparation 4A, (4aR,10aR)-1-propyl-1,2,3,4,4a,5,8,9,10,10a-decahydrobenzo[g]quinolin-6 (7H)-one]					20 to 25	20 to 45	higher peak plasma concentration	induce hyperactivity	dose-dependently increase	does not have					
CCCN1CCC[C@@H]2CC3=C(CCC[C@H]3O)C[C@H]21 [Example 4B, (4aR,6R,10aR)-1-propyl-1,2,3,4,4a,5,6,7,8,9,10,10a-dodecahydrobenzo[g]quinolin-6-ol]		highly potent dopamine-receptor agonists	very long duration of action	good bioavailability	35 to 40			induce hyperactivity	dose-dependently increase	dose-dependently increases	no or a mild side effect profile	increases tissue levels	to a greater extent	increases tissue levels	to a greater extent

— patent US20250282733A1, “NOVEL 1,2,3,4,4A,5,6,7,8,9,10,10A-DODECAHYDROBENZO[G]QUINOLIN-6-OL COMPOUNDS AND USES THEREOF” (priority 2022, published 2025)
